The supplement of paper PMC10307832

Assays:
Experiment in all cases: relative viability (nuclei count vs DMSO), 5 days (fraction); higher = more cells survive
Kobe2602 + Lapatinib = compound: C1=CC(=CC=C1NC(=S)NNC2=C(C=C(C=C2[N+](=O)[O-])C(F)(F)F)[N+](=O)[O-])F [Kobe2602] + CS(=O)(=O)CCNCc1ccc(-c2ccc3ncnc(Nc4ccc(OCc5cccc(F)c5)c(Cl)c4)c3c2)o1 [Lapatinib] (partner 2 µM)
Method in brief: (§1)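 A single step with final 0.05% Triton X-100, 1% formaldehyde and 1 ug/ml Hoechst fixed the cells and stained nuclei 5 days after treatment. Lung cancer cell lines in 1536-well plates had been treated by pin tool the day after seeding with one drug alone or a fixed anchor-drug dose plus five library-drug doses (not always all listed) in √10 steps, and nuclei were counted on 4× images. Relative viability is the ratio of nuclei in treated wells to nuclei in vehicle wells, taken as the median of duplicate plates.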

[1] = compound: COc1cc2nccc(Oc3ccc(NC(=O)C4(C(=O)Nc5ccc(F)cc5)CC4)cc3)c2cc1OC [Cabozantinib] + CC(=O)Nc1cccc(-n2c(=O)n(C3CC3)c(=O)c3c(Nc4ccc(I)cc4F)n(C)c(=O)c(C)c32)c1 [Trametinib] (partner 0.02 µM)
Method in brief: as §1

Zosuquidar + Dasatinib = compound: O[C@@H](COc1cccc2ncccc12)CN1CCN([C@@H]2c3ccccc3[C@@H]3[C@H](c4ccccc42)C3(F)F)CC1 [Zosuquidar] + Cc1nc(Nc2ncc(C(=O)Nc3c(C)cccc3Cl)s2)cc(N2CCN(CCO)CC2)n1 [Dasatinib] (partner 0.075 µM)
Method in brief: as §1

Zosuquidar + Luminespib = compound: O[C@@H](COc1cccc2ncccc12)CN1CCN([C@@H]2c3ccccc3[C@@H]3[C@H](c4ccccc42)C3(F)F)CC1 [Zosuquidar] + CCNC(=O)c1noc(-c2cc(C(C)C)c(O)cc2O)c1-c1ccc(CN2CCOCC2)cc1 [Luminespib] (partner 0.01 µM)
Method in brief: as §1

Cell Line: UMC-11
- relative viability (Kobe2602 + Lapatinib; first compound 0.2 µM): 0.696
- relative viability (Kobe2602 + Lapatinib; first compound 0.6325 µM): 1
- relative viability (Kobe2602 + Lapatinib; first compound 2 µM): 0.958
- relative viability (Kobe2602 + Lapatinib; first compound 6.325 µM): 1.07
- relative viability (Kobe2602 + Lapatinib; first compound 20 µM): 1.12
- relative viability ([1]; first compound 0.02 µM): 0.666
- relative viability ([1]; first compound 0.06325 µM): 0.808
- relative viability ([1]; first compound 0.2 µM): 0.782
- relative viability ([1]; first compound 0.6325 µM): 0.548
- relative viability ([1]; first compound 2 µM): 0.69
- relative viability (Zosuquidar + Dasatinib; first compound 0.01 µM): 0.428
- relative viability (Zosuquidar + Dasatinib; first compound 0.03162 µM): 0.535
- relative viability (Zosuquidar + Dasatinib; first compound 0.1 µM): 0.455
- relative viability (Zosuquidar + Dasatinib; first compound 0.3162 µM): 0.486
- relative viability (Zosuquidar + Dasatinib; first compound 1 µM): 0.518
- relative viability (Zosuquidar + Luminespib; first compound 0.01 µM): 0.97
- relative viability (Zosuquidar + Luminespib; first compound 0.03162 µM): 0.943
- relative viability (Zosuquidar + Luminespib; first compound 0.1 µM): 1.08
- relative viability (Zosuquidar + Luminespib; first compound 0.3162 µM): 1.1
- relative viability (Zosuquidar + Luminespib; first compound 1 µM): 1.18
